The record followed here is patent publication US20100173022A1, “COMPOSITION FOR THE TREATMENT OF DIABETES MELLITUS AND METABOLIC SYNDROME” (priority 2007, published 2010).

One test concerns rat islets. The test can be described thus: in vitro insulinotropic test using rat islets. The test is classed as cell-based. The settings on record: dose 162(1 mM) micrograms; mean ± SEM. The text has this: In an in vitro test using rat islets, the insulinotropic ability of ADM01 was investigated against standard (tolbutamide) and placebo control.
Test [1] deals with experimental diabetic rats (Streptozotocin-Nicotinamide model). The test can be described thus: 30-days study in Streptozotocin-Nicotinamide experimental diabetic rats. The test is classed as in vivo, rat. To be noted: after 10, 20 and 30 days of treatment vs base line (0 day); P<0.05. The method, then: In another study the effect of ADM01 on blood glucose levels in experimental diabetic rats, using the Streptozotocin-Nicotinamide model, was investigated. After confirming the stabilization of diabetes mellitus in the experimental animals a single dose study was carried out in which the effect of a single dose administration of different dosages of ADM01 on blood glucose levels was investigated against vehicle control.
After the single dose study, a 30-days study was carried out in which the effect of daily administration of ADM01 on blood glucose levels was investigated. The effect of doses of 200, 400 and 800 mg/kg body weight respectively were investigated.

In test [2] the test system is streptozotocin induced type I diabetes rats. The test can be described thus: Streptozotocin induced type I diabetes model. In kind it is in vivo, rat. The settings on record: insulin 2.5, single dose, at 2 hrs. The protocol:
In another study streptozotocin was administered to the test animals, causing the destruction of the beta cells of pancreas. In rats a dose of STZ of 60 mg/kg ip causes stable hyperglycemia by day 7 post administration. Generally, this model mimics type I Diabetes Mellitus. Groups were treated for 15 days with ADM01, ADM01+insulin and insulin.
In the same study the effects of a single dose administration on fasting glucose levels was studied.

As to `CCCCNC(=O)NS(=O)(=O)c1ccc(C)cc1` [Tolbutamide], in the test on rat islets, the “Amount of insulin during stimulated insulin release (glucose, 16 mM)” value came to 239.48 ± 11.43 picomoles/L and the “Amount of insulin release at basal glucose levels (2 mM)” value is 107.08 ± 15.35 picomoles/L. For the same compound, in test [1], the “serum blood glucose levels” value is recorded as “significantly decreased” and the serum insulin levels entry is listed as “significantly increased”.
With insulin, the “fall of FPG-levels” value in test [2] turned out to be 23.3%.
